{
  "source": "paper PMC3272643",
  "about": "(Organic process research & development, 2012)",
  "origin": "cited, not measured here",
  "test_system": "peptide-cleaving proteases",
  "data": [
    {"substance": "gramicidin S", "values": [
      {"measurement": "resistance to peptide-cleaving proteases", "result": "significant resistance to peptide-cleaving proteases"}
    ]}
  ]
}
